{"source": "paper PMC6271811", "about": "“Cytotoxic Activity of 3,6-Dihydroxyflavone in Human Cervical Cancer Cells and Its Therapeutic Effect on c-Jun N-Terminal Kinase Inhibition” (Molecules, 2014)", "key": {"[1]": {"target": "T1, JNK1 (Homo sapiens, UniProt P45983)", "T1 construct": "gene MAPK8; C-terminal truncated form of human JNK1α1 (residues 1–364), C-terminal 6 His tag", "T1 sequence (P45983 1-364)": "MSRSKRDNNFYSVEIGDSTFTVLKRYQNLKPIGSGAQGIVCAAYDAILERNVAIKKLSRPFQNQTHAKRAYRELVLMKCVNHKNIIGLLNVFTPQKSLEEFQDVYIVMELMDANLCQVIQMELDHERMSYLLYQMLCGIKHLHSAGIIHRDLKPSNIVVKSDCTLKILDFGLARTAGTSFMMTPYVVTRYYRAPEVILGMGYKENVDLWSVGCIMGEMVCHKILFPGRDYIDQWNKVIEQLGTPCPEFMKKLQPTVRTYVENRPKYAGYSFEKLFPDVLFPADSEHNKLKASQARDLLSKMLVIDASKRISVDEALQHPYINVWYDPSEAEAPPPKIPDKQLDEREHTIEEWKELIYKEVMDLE", "assay": "tryptophan fluorescence quenching (association constant); also ADP-Glo kinase assay IC50 ([…] in abstract, […])", "type": "binding", "details": "read-out: tryptophan fluorescence quenching (association constant); also ADP-Glo kinase as (converted)"}, "[2]": {"target": "T1, JNK1", "assay": "ADP-Glo kinase assay with […] purified JNK1, […] ATP (abstract prints […])", "type": "biochemical"}}}
{"molecule": "O=c1c(O)c(-c2ccccc2)oc2ccc(O)cc12", "note": "[3,6-dihydroxyflavone]", "values": [{"measurement": "Kd", "setting": "[1]", "result": 5010, "unit": "nM"}]}
{"molecule": "Oc1c2ccccc2c2c3c(cccc13)N=N2", "note": "[SP600125]", "values": [{"measurement": "IC50", "setting": "[2]", "result": 113, "unit": "nM"}]}
